Several values for one entry are separate records, joined by “and”; a condition that tells them apart may be missing. Identical values can stand only once. Like-named read-outs stand apart in the source and are kept apart here.

Data set [1] concerns the target Mcl-1 (Homo sapiens, UniProt Q07820). In words: FP-based binding assay, Mcl-1. As to conditions: for IC50: Table 4, FP-based assay, read-out: Binding Affinities Mcl-1 IC50 ± SD.
Data set [2] relates to RS4;11 cells. Nature of the data set: Cell growth assay (WST-8), RS4;11. The note with it: Homo sapiens, RS4-11, 96 h; Table 4, 4 days; read-out: Cell Growth Inhibition (IC50 ± SD, nM) RS4;11. The data set is classed as cell-based. How it is done: (§1) RS4;11 and H146 cells were seeded in 96-well cell culture plates at a density of 10,000 cells/well with serially diluted compounds and incubated at 37° C. in an atmosphere of 95% air and 5% CO2 for 4 days. Cell viability was determined using the WST-8 (2-(2-methoxy-4-nitrophenyl)-3-(4-nitrophenyl)-5-(2,4-disulfophenyl)-2H-tetrazolium, monosodium salt) based Cell Counting-8 Kit (Dojindo Molecular Technologies, Inc., Rockville, Md.) according to the manufacture's instruction. Briefly, WST-8 was added to each well at a final concentration of 10% (v/v), and then the plates were incubated at 37° C. for 1˜2 hours for color development. The absorbance was measured at 450 nm using a SPECTRAmax PLUS plate reader (Molecular Devices, Sunnyvale, Calif.). The half maximal inhibitory concentration (IC50) was calculated using the GraphPad Prism 5 software (GraphPad Software, La Jolla, Calif.).
A general note: Formazan colour is commonly taken as a measure of viable cells.

In data set [3] the test system is H146 cells. Nature of the data set: Cell growth assay (WST-8), H146. Format: cell-based. As to conditions: Homo sapiens, NCI-H146, 96 h; Table 4, 4 days; read-out: Cell Growth Inhibition (IC50 ± SD, nM) H146. How it is done:
as §1

Data set [4] deals with ML-2 acute myeloid leukemia (AML) cell line. In words: Cell growth assay (WST-8), ML-2. Format: cell-based. The note with it: Table 4; read-out: Cell Growth Inhibition (IC50 ± SD, nM) ML-2.
The target of data set [5] is Bcl-2 (Homo sapiens, UniProt P10415). Nature of the data set: FP-based binding assay, Bcl-2.
Data set [6] concerns the target Bcl-xL (Homo sapiens, UniProt Q07817). In words: FP-based binding assay, Bcl-xL. The note with it: for Ki: Binding Affinities Bcl-xL Ki ± SD (nM), Table 4, * Ki is an estimate, compound more potent than the tracer.
Data set [7] can be described thus: Toxicity (maximum tolerated dose) in SCID mice. The data set is classed as in vivo.
Description: These experiments established the maximum tolerated doses (MTD).
Where [8] appears, read: read-out: Binding Affinities Bcl-xL IC50 ± SD, Table 4, FP-based assay.

Chain of Bcl-2 (P10415 whole entry): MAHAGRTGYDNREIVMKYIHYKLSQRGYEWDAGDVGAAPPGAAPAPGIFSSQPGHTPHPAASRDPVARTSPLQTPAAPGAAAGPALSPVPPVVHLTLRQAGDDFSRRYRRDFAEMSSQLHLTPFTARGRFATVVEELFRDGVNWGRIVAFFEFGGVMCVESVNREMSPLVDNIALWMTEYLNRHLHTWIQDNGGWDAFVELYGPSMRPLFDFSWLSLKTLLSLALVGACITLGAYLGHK
Chain of Mcl-1 (Q07820 whole entry, species assumed): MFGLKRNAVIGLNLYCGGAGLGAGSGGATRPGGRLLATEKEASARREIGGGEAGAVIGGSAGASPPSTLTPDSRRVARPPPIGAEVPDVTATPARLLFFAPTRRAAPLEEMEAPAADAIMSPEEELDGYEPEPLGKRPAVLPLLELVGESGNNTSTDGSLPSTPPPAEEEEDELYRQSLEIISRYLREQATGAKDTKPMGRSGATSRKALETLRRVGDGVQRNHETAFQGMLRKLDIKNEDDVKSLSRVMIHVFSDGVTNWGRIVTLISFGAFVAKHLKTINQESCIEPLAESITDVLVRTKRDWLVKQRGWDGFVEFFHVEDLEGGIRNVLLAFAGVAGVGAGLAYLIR
Chain of Bcl-xL (Q07817 whole entry): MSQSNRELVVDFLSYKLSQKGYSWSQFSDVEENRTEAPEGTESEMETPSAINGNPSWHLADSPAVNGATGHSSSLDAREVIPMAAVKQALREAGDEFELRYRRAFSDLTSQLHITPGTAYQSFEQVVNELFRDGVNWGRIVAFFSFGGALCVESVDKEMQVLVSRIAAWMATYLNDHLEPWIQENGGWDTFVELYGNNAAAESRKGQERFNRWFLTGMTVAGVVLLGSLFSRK

By IC50 is commonly meant the midpoint of a concentration-inhibition curve. One may read the Ki as the dissociation constant of the complex between target and ligand, obtained from inhibition or displacement. For the molecule `CNC(=O)c1c(-c2cccc(N3CCN(c4ccc(NS(=O)(=O)c5ccc(N[C@H](CCN6CCOCC6)CSc6ccccc6)c([N+](=O)[O-])c5)cc4)CC3)c2)c(-c2ccc(Cl)cc2)n(C)c1C` [Compound 124], the concentration for half-maximal inhibition (IC50) was above 10 µM in data set [1]; 89 ± 30 nM in data set [2]; 178 ± 65 nM in data set [3]; 382 ± 138 nM in data set [4]; 14 ± 2 nM in data set [5]; 5 ± 1 nM in data set [6]. Besides, the Ki is 3 ± 0.6 nM in data set [5] and 1 ± 0.2 nM in data set [6].
As to `CNC(=O)c1c(-c2cccc(N3CCN(c4ccc(NS(=O)(=O)c5ccc(N[C@H](CCN(C)C)CSc6ccccc6)c([N+](=O)[O-])c5)cc4)CC3)c2)c(-c2ccc(Cl)cc2)n(C)c1C` [Compound 125], the IC50 was above 10 µM in data set [1]; 74 ± 44 nM in data set [2]; 36 ± 26 nM in data set [3]; 215 ± 52 nM in data set [4]; 5 ± 1 nM in data set [5] (read-out: Binding Affinities Bcl-2 IC50 ± SD, Table 4, FP-based assay); 6 ± 3 nM in data set [6] (setting [8]). For the same molecule, the Ki is 1.1 ± 0.2 nM in data set [5] (read-out: Binding Affinities Bcl-2 Ki ± SD, Table 4, * Ki is an estimate, compound more potent than the tracer) and 1.6 ± 0.8 nM in data set [6].
In the case of `CN(C)CC[C@@H](CSc1ccccc1)Nc1ccc(S(=O)(=O)Nc2ccc(N3CCN(c4cccc(-c5ccnn5-c5ccc(Cl)cc5)c4)CC3)cc2)cc1[N+](=O)[O-]` [Compound 130], the “Weight loss or other signs of toxicity” value in data set [7] (female SCID mice, intravenously, daily, 5-times a week for 2 weeks, 25 mg/kg) is on record as “no or minimal weight loss or other signs of toxicity”.
`Cc1c(C(=O)NS(C)(=O)=O)c(-c2cccc(N3CCN(c4ccc(NS(=O)(=O)c5ccc(N[C@H](CCN(C)C)CSc6ccccc6)c([N+](=O)[O-])c5)cc4)CC3)c2)c(-c2ccc(Cl)cc2)n1C` [Compound 133]: the IC50 in data set [1] is above 10 µM; in data set [2], 87 ± 19 nM; in data set [3], 38 ± 22 nM; in data set [4] it was 160 ± 53 nM; in data set [5], 1 ± 0.2 nM; in data set [6] (setting [8]), 5 ± 1 nM. Besides, the “Weight loss at higher dose” value in data set [7] (SCID mice, 50 mg/kg) is “caused weight loss”. Moreover, the Ki is below 1 nM in data set [5] and 1.3 ± 0.3 nM in data set [6].
Consider `Cc1cc(-c2cccc(N3CCN(c4ccc(NS(=O)(=O)c5ccc(N[C@H](CCN(C)C)CSc6ccccc6)c([N+](=O)[O-])c5)cc4)CC3)c2)c(-c2ccc(Cl)cc2)n1C` [Compound 168, (R)—N-(4-(4-(3-(2-(4-chlorophenyl)-1,5-dimethyl-1H-pyrrol-3-yl)phenyl)piperazin-1-yl)phenyl)-4-((4-(dimethylamino)-1-(phenylthio)butan-2-yl)amino)-3-nitrobenzenesulfonamide], for which the concentration for half-maximal inhibition (IC50) in data set [1] was above 5 µM. Moreover, in data set [6], the IC50 is 3 ± 0.4 nM; the inhibition constant Ki is 3 nM and < 1 nM.
On to `Cc1c(C(=O)O)c(-c2cccc(N3CCN(c4ccc(NS(=O)(=O)c5ccc(N[C@H](CCN(C)C)CSc6ccccc6)c([N+](=O)[O-])c5)cc4)CC3)c2)c(-c2ccc(Cl)cc2)n1C` [Compound 178, (R)-5-(4-chlorophenyl)-4-(3-(4-(4-(4-((4-(dimethylamino)-1-(phenylthio)butan-2-yl)amino)-3-nitrophenylsulfonamido)phenyl)piperazin-1-yl)phenyl)-1,2-dimethyl-1H-pyrrole-3-carboxylic acid], for which the IC50 in data set [1] is above 10 µM; in data set [2], 26 ± 4 nM; in data set [3] it was 87 ± 60 nM; in data set [4], 124 ± 62 nM; in data set [5], 1 ± 0.1 nM; in data set [6] (setting [8]), 6 ± 4 nM. Moreover, the Ki is below 1 nM in data set [5] and 1.6 ± 1 nM in data set [6].
As for `Cc1c(C(=O)O)c(-c2cccc(N3CCN(c4ccc(NS(=O)(=O)c5ccc(N[C@H](CCN(C)C)CSc6ccccc6)c(S(=O)(=O)C(F)(F)F)c5)cc4)CC3)c2)c(-c2ccc(Cl)cc2)n1C` [Compound 185, (R)-5-(4-chlorophenyl)-4-(3-(4-(4-(4-((4-(dimethylamino)-1-(phenylthio)butan-2-yl)amino)-3-((trifluoromethyl)sulfonyl)phenylsulfonamido)phenyl)piperazin-1-yl)phenyl)-1,2-dimethyl-1H-pyrrole-3-carboxylic acid], the half-inhibitory concentration (IC50) in data set [1] was above 10 µM; in data set [2], 81 ± 7 nM; in data set [3], 177 ± 73 nM; in data set [4], 550 ± 204 nM; in data set [5], 2.2 ± 1.6 nM; in data set [6] it was 5 ± 4 nM. The inhibition constant Ki was below 1 nM in data set [5] and 1.3 ± 1 nM in data set [6].
As for `Cc1c(C(=O)O)c(-c2cccc(N3CCN(c4ccc(NS(=O)(=O)c5ccc(N[C@H](CCN6CCOCC6)CSc6ccccc6)c(S(=O)(=O)C(F)(F)F)c5)cc4)CC3)c2)c(-c2ccc(Cl)cc2)n1C` [Compound 186, (R)-5-(4-chlorophenyl)-1,2-dimethyl-4-(3-(4-(4-(4-((4-morpholino-1-(phenylthio)butan-2-yl)amino)-3-((trifluoromethyl)sulfonyl)phenylsulfonamido)phenyl)piperazin-1-yl)phenyl)-1H-pyrrole-3-carboxylic acid], the IC50 was above 10 µM in data set [1]; 493 ± 64 nM in data set [2]; 430 ± 207 nM in data set [3]; 1090 ± 562 nM in data set [4]; 14 ± 3 nM in data set [5]; 6 ± 3 nM in data set [6]. The Ki in data set [5] is 3.4 ± 0.6 nM; in data set [6] it was 1.6 ± 0.8 nM.
Consider `Cc1c(C(=O)O)c(-c2cccc(N3CCN(c4ccc(NS(=O)(=O)c5ccc(N[C@H](CCN6CCOCC6)CSc6ccccc6)c([N+](=O)[O-])c5)cc4)CC3)c2)c(-c2ccc(Cl)cc2)n1C` [Compound 187, (R)-5-(4-chlorophenyl)-1,2-dimethyl-4-(3-(4-(4-(4-((4-morpholino-1-(phenylthio)butan-2-yl)amino)-3-nitrophenylsulfonamido)phenyl)piperazin-1-yl)phenyl)-1H-pyrrole-3-carboxylic acid], for which the IC50 in data set [1] was above 10 µM; in data set [2], 99 ± 28 nM; in data set [3], 181 ± 61 nM; in data set [4], 225 ± 49 nM; in data set [5] it was 2 ± 1 nM; in data set [6], 5 ± 2 nM. Further, the Ki in data set [5] is below 1 nM; in data set [6], 1.3 ± 0.6 nM.
As usually defined, the Kd is the equilibrium constant for the complex coming apart. In the case of “Flu-BID: "Homemade fluorescein labeled" "BID (79-99)" peptide, fluorescent probe "in FP assays for" Mcl-1 [reference compound]”, in data set [1] (saturation FP, 2 nM probe, increasing protein, read-out: Kd of fluorescent probe to Mcl-1), the Kd was 6.8 ± 1.5 nM.

Source of the values: patent publication US8691184B2, “Bcl-2/Bcl-xL inhibitors and therapeutic methods using the same” (The Regents of the University of Michigan, priority 2011, dated 2014).
